Measured values taken from a melting point compilation (Tetko et al.; mined from patent text by program, amines drawn as free bases though some values may be those of a salt).

First: Nc1cc(C(=O)O)nn1-c1c(Cl)cc(C(F)(F)F)cc1Cl
Second: CCCc1nn(-c2ccc(C(F)(F)F)cn2)cc1CCCOc1ccc(F)c(CC(=O)O)c1
The melting point of the first is higher: 213 °C for the first, 111 to 112 °C for the second.

First: Brc1ccc2c(ccc3cc(Br)ccc32)c1
Second: CC(O)(c1ccc(Cl)cc1)c1cc2ccccc2o1 (stereo not drawn)
The melting point of the first is higher: 163 to 166 °C for the first, 64 to 66 °C for the second.

First: O=C1NCc2c(-c3ccccc3)cccc2N1CCN1CCOCC1
Second: N#CCc1ccc2oc([N+](=O)[O-])c(-c3ccccc3)c2c1
The melting point of the first is higher: 228 to 229 °C for the first, 166 to 168 °C for the second.

First: COC(=O)CC[C@H](NC(=O)CCCCCCC1CNc2nc(NC(=O)C(C)(C)C)nc(O)c2C1)C(=O)OC (stereo partly drawn)
Second: COc1ccc2c(=O)nc(-c3cccc(CCC(=O)OC(C)(C)C)n3)sc2c1
The melting point of the first is higher: 152 to 160 °C for the first, 134 to 135 °C for the second.

First: O=P1(c2ccc(-c3ccccc3)cc2)c2ccccc2CN1c1ccccc1 (stereo not drawn)
Second: Cn1c(=O)n(Cc2ccccc2)c(=O)c2cc(C(=O)CCc3ccccc3)ccc21
The melting point of the first is higher: 259 to 261 °C for the first, 155 °C for the second.

Compared with `Cc1ccc(Sc2cncc3sc(C=NOCC(=O)O)cc23)cc1`, `Cc1ccc(SCC(=O)c2cc(O)c(O)c([N+](=O)[O-])c2)cc1` is lower in melting point: 227 to 230 °C for the first, 115 to 116 °C for the second.

Compared with `CC(CCC(=O)Cl)C1CCC2C3CCC4CCCCC4(C)C3CCC12C` (stereo not drawn), `CC(=O)OC1(C)CCCCC1C1CCCCC1` (stereo not drawn) is lower in melting point: 104 to 106 °C for the first, 35 °C for the second.

Compared with `CC1(C)OCC(C(O)CNC(=O)CS(=O)(=O)Nc2ccc(F)c(C(F)(F)F)c2)O1` (stereo not drawn), `Cc1cc(C(=O)NCc2ccc(Br)cc2F)c(O)cc1F` is higher in melting point: 144 to 146 °C for the first, 149 to 150 °C for the second.

Compared with `CCN1C(=O)N(c2c(F)c(OC)cc(OC)c2F)Cc2cnc(SC)nc21`, `COc1cc(NC(C)CCCN2C(=O)c3ccccc3C2=O)c2ncccc2c1Oc1ccc(Cl)cc1` (stereo not drawn) is lower in melting point: 165 to 168 °C for the first, 75 to 77 °C for the second.

First: O=[N+]([O-])c1ccc(C2OCc3cc(Br)ccc3O2)cc1 (stereo not drawn)
Second: CC1(C)CC(C)(C)c2cc(NC(=O)c3ccc(O)cc3)ccc21
The melting point of the first is lower: 163 to 164 °C for the first, 185 to 187 °C for the second.

First: CSN(C=C(C#N)C#N)c1cccc(C(C)=O)c1
Second: N#Cc1ccc(C(=O)n2ccnc2)cc1
The melting point of the first is higher: 165 to 166 °C for the first, 152 to 154 °C for the second.

Compared with `C=CCn1c(=O)[nH]c(=O)c2[nH]c(C34CC5CC(CC3C5)C4)nc21`, `CC1(C)CC(Oc2nc(Cl)nc(N3C(C)(C)CCCC3(C)C)n2)CC(C)(C)N1O` is lower in melting point: > 270 °C for the first, 152 to 153 °C for the second.

Compared with `CC(C)OCCNc1ccccc1C(=O)C(=O)OC(=O)C(=O)c1ccccc1NCCOC(C)C`, `C[C@H](NC(=O)OC(C)(C)C)C(=O)OC[C@@H]1CCCN1c1cccc2c1C(=O)c1ccccc1C2=O` is higher in melting point: 107 to 108 °C for the first, 110 °C for the second.

First: O=C(/C=C/c1cccc([N+](=O)[O-])c1)N1CCN(C(=O)c2cc(C(F)(F)F)cc(C(F)(F)F)c2)[C@H](Cc2c[nH]c3ccccc23)C1
Second: O=C(O)c1ccc2c(c1)C(=O)C(c1nc3ccccc3cc1O)C2=O (stereo not drawn)
The melting point of the first is lower: 127 to 133 °C for the first, > 350 °C for the second.

Compared with `Cc1ccc2nc(-c3cc(C(F)(F)C(F)(F)F)nn3-c3ccc(S(C)(=O)=O)cc3)sc2c1`, `O=C(O)CNC(=O)c1nc2ccc(Oc3ccccc3)cc2cc1O` is higher in melting point: 195 to 196 °C for the first, 225 to 227 °C for the second.

First: CC1(N2C(=O)c3cccc(NC(=O)c4cccc(Cl)c4)c3C2=O)CCC(=O)NC1=O (stereo not drawn)
Second: CC1(c2ccccc2)Cc2cc(OCC(=O)O)c(Cl)c(Cl)c2C1O (stereo not drawn)
The melting point of the first is higher: 283 to 285 °C for the first, 160 to 162 °C for the second.

First: CCCCc1nc(C(O)C(C)(C)C)c(C(N)=O)n1Cc1ccc(-c2ccccc2-c2nnn[nH]2)cc1 (stereo not drawn)
Second: OCC(O)Cn1cnc2c(Cl)nc3ccccc3c21 (stereo not drawn)
The melting point of the first is lower: 157 to 160 °C for the first, 223 to 225 °C for the second.

First: Cc1ccccc1-n1c(C)nc2cscc2c1=O
Second: CCn1cc(C(=O)O)c(=O)cc1-c1ccc(NC)c(C)c1
The melting point of the first is lower: 122 to 123 °C for the first, 243 to 244 °C for the second.

First: COC(=O)c1sc(CBr)cc1NC(=O)Nc1ccc(C)cc1
Second: CCCS(=O)(=O)c1ccc(NC(=O)CCCCCCCCCC=C(F)F)cc1
The melting point of the first is higher: 157 to 158 °C for the first, 67 to 70 °C for the second.
